Test systems include EKVX NSCLC; LOX IMVI melanoma; MALME-3M melanoma; MCF7 breast; NCI-H226 lung; OVCAR-4 ovarian; SW-620 colon; U251 CNS; UACC-257 melanoma; UO-31 renal.
What all share (assay): growth of human tumour cells (NCI), 48 h

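Following 48 hours of exposure in 96-well plates, responses at five concentrations were used to interpolate endpoints linearly. At the GI50, growth is halved. The concentration for full growth arrest is given as TGI.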

As for `O=C(Nc1cccc(C(F)(F)F)c1)Nc1cc(S(=O)(=O)NC2CC2)ccc1-c1ccsc1`, the GI50 was 2.45 µM with EKVX NSCLC; 4.5 µM in the test on LOX IMVI melanoma; 3390 nM in the test on MALME-3M melanoma; 3.26 µM with MCF7 breast; 4.82 µM in the test with NCI-H226 lung; 3.78 µM in the test on OVCAR-4 ovarian. Besides, the GI50 in the test on SW-620 colon is 4.45 µM; with U251 CNS, 3.78 µM; with UACC-257 melanoma it was 3.84 µM; in the test on UO-31 renal, 3.3 µM. Besides, the TGI with EKVX NSCLC was found to be 12.2 µM; in the test on LOX IMVI melanoma, 16.9 µM; with MALME-3M melanoma, 11.1 µM; in the test with MCF7 breast, 15 µM; in the test with NCI-H226 lung, 19 µM; in the test with OVCAR-4 ovarian, 15.4 µM. Besides, the TGI in the test on SW-620 colon stood at 18.5 µM; in the test on U251 CNS, 13.6 µM; with UACC-257 melanoma, 14.4 µM; in the test on UO-31 renal it was 13.3 µM.
On to `Cc1ccc(S(=O)(=O)NCc2cccc([N+](=O)[O-])c2)cc1`, for which the TGI in the test with EKVX NSCLC, in the test on LOX IMVI melanoma, in the test on MALME-3M melanoma, in the test with MCF7 breast, with NCI-H226 lung and with OVCAR-4 ovarian was above 100 µM throughout. Besides, the TGI in the test on SW-620 colon, with U251 CNS and in the test with UACC-257 melanoma was above 100 µM throughout.
`C=CCCC1(CCP(=O)(c2ccccc2)c2ccccc2)OCCO1`: the TGI in the test on EKVX NSCLC, with LOX IMVI melanoma, in the test with MALME-3M melanoma, in the test with MCF7 breast, in the test on SW-620 colon and with U251 CNS was above 100 µM throughout. In addition, the TGI with UACC-257 melanoma and in the test on UO-31 renal was above 100 µM in each case.
For the molecule `COc1cc([C@H]2c3cc(O)c(OC)cc3C[C@]3(O)[C@@H]2CO[C@@H]3O)ccc1O`, the TGI in the test with EKVX NSCLC, in the test on LOX IMVI melanoma, with MCF7 breast, in the test with NCI-H226 lung, in the test with OVCAR-4 ovarian and with SW-620 colon was above 100 µM in each case. The TGI with U251 CNS, in the test with UACC-257 melanoma and with UO-31 renal was above 100 µM throughout.
Turning to `COC(=O)C(NC(=O)c1ccccc1)c1ccc(OC)c(I)c1` (stereo not drawn), the GI50 in the test on EKVX NSCLC is 89.1 µM; in the test with LOX IMVI melanoma, 46.9 µM; with MCF7 breast, 39.5 µM; with NCI-H226 lung it was above 100 µM; in the test with OVCAR-4 ovarian it was 94.2 µM; with SW-620 colon, above 100 µM. The GI50 with U251 CNS is 65.6 µM; in the test on UACC-257 melanoma it was 48.3 µM; in the test with UO-31 renal, 76 µM. Also, the TGI in the test on EKVX NSCLC, in the test on LOX IMVI melanoma, in the test with MCF7 breast, in the test with NCI-H226 lung, with OVCAR-4 ovarian and in the test on SW-620 colon was above 100 µM in each case. For the same molecule, the TGI in the test on U251 CNS, in the test with UACC-257 melanoma and in the test on UO-31 renal was above 100 µM throughout.
For `CCn1c(SC)nnc1-c1cc2c([nH]c3ccccc32)c(-c2cccc(O)c2)n1`, the GI50 is 3.02 µM in the test on EKVX NSCLC; 2.51 µM with LOX IMVI melanoma; 1370 nM in the test with MALME-3M melanoma; 0.995 µM in the test on MCF7 breast; 1.91 µM with NCI-H226 lung; 2.75 µM in the test on OVCAR-4 ovarian. The GI50 was 1.44 µM with SW-620 colon, 2.97 µM with U251 CNS and 1.94 µM with UO-31 renal. The TGI in the test with EKVX NSCLC amounted to 26.2 µM; with LOX IMVI melanoma, 29.1 µM; in the test with MALME-3M melanoma, 9.58 µM; in the test on MCF7 breast, 25.2 µM; with NCI-H226 lung, 4.9 µM; in the test with OVCAR-4 ovarian, 13 µM. The TGI in the test on SW-620 colon was above 100 µM; with U251 CNS, 19.1 µM; with UO-31 renal, 15.8 µM.
Regarding `Cc1cc(C2(c3cc(C)c(O)c4ncccc34)OC(=O)c3ccccc32)c2cccnc2c1O`, the values for the GI50 in the test on EKVX NSCLC, in the test on SW-620 colon and with UACC-257 melanoma were 0.0124 µM, 0.0521 µM and 0.496 µM, respectively. In addition, the TGI in the test with LOX IMVI melanoma, with MALME-3M melanoma, with MCF7 breast, with OVCAR-4 ovarian, in the test with SW-620 colon and with U251 CNS was above 100 µM throughout. For the same molecule, the TGI with UACC-257 melanoma is above 100 µM.
Turning to `N#Cc1c(N)nc(N2CCOCC2)c(C#N)c1-c1ccc(Cl)cc1Cl`, the GI50 in the test on EKVX NSCLC was 20.1 µM; with LOX IMVI melanoma it was 16.7 µM; in the test on MCF7 breast, 8.8 µM; with NCI-H226 lung it was 26.9 µM; with OVCAR-4 ovarian it was 21.8 µM; with SW-620 colon, 27.3 µM. In addition, the GI50 with U251 CNS is 17.4 µM; with UACC-257 melanoma, 18 µM; in the test on UO-31 renal, 3.26 µM. Further, the TGI with EKVX NSCLC was 64.3 µM; in the test on LOX IMVI melanoma, 34.2 µM; in the test with MCF7 breast, 36.2 µM; with NCI-H226 lung, above 100 µM; in the test on OVCAR-4 ovarian it was 78.2 µM; in the test on SW-620 colon, above 100 µM. Also, the TGI turned out to be 42.4 µM with U251 CNS, 62.4 µM in the test on UACC-257 melanoma and 15.8 µM with UO-31 renal.
For the molecule `COc1ccc(-c2ccc(/C=N/n3c(COc4ccc(Cl)c(C)c4)nn(CN4CCOCC4)c3=S)o2)c([N+](=O)[O-])c1`, the GI50 is 26.4 µM with EKVX NSCLC; 17900 nM in the test with MALME-3M melanoma; above 100 µM in the test on MCF7 breast; above 100 µM with NCI-H226 lung; 31.9 µM with OVCAR-4 ovarian; 19.9 µM in the test with SW-620 colon. Further, the results for the GI50 in the test on U251 CNS and with UO-31 renal were 30.5 µM and 28.8 µM, respectively. Moreover, the TGI in the test on EKVX NSCLC is above 100 µM; with MALME-3M melanoma, 43.1 µM; in the test with MCF7 breast it was above 100 µM; in the test with NCI-H226 lung, above 100 µM; in the test with OVCAR-4 ovarian, 76.7 µM; in the test with SW-620 colon, 48.9 µM. The TGI in the test with U251 CNS and with UO-31 renal was above 100 µM each time.
As to `Oc1ccc(CCNc2nc3ccccc3c3[nH]c4ccccc4c23)cc1`, the GI50 with EKVX NSCLC is 1.91 µM; with MALME-3M melanoma, 1790 nM; in the test on MCF7 breast, 1.37 µM; with NCI-H226 lung, 2.65 µM; with OVCAR-4 ovarian, 1.66 µM; with UACC-257 melanoma, 1.94 µM. The TGI in the test on EKVX NSCLC was 3.95 µM; with MALME-3M melanoma, 3.46 µM; with MCF7 breast it was 3.16 µM; in the test with NCI-H226 lung it was 7.3 µM; in the test on OVCAR-4 ovarian, 3.15 µM; with UACC-257 melanoma, 3.46 µM.

Values taken from PubChem BioAssay (NCI).
